Test results as given in US10597388B2, “Pyridazinone herbicides” (FMC CORPORATION, priority 2014, dated 2020).

Tests used:
Format in all cases: in vivo
[1] = system: sedge, umbrella (small-flower umbrella sedge, Cyperus difformis); experiment: Test B flooded paddy test; settings: 250 g ai/ha, Flood; visual rating on scale of 0 to 100 where 0 is no effect and 100 is complete control; 13 to 15 d after treatment
Summary of the method: (§1)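 Plants at the 2-leaf stage were flooded to 3 cm above soil, and test compounds were applied directly into the paddy water, which was held at that depth throughout. After 13 to 15 d in a greenhouse, injury was rated visually against untreated controls on a 0–100 scale (0 no effect, 100 complete control).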

[2] = system: ducksalad (Heteranthera limosa); experiment: Test B flooded paddy test; settings: 250 g ai/ha, Flood; visual rating on scale of 0 to 100 where 0 is no effect and 100 is complete control; 13 to 15 d after treatment
Summary of the method: as §1

[3] = system: barnyardgrass (Echinochloa crus-galli); experiment: Test B flooded paddy test; settings: 250 g ai/ha, Flood; visual rating on scale of 0 to 100 where 0 is no effect and 100 is complete control; 13 to 15 d after treatment
Summary of the method: as §1

[4] = system: rice (Oryza sativa); experiment: Test B flooded paddy test; settings: 250 g ai/ha, Flood; visual rating on scale of 0 to 100 where 0 is no effect and 100 is complete control; 13 to 15 d after treatment
Summary of the method: as §1

[5] = system: foxtail, giant (giant foxtail, Setaria faberii); experiment: Test A greenhouse herbicide test, pre- and postemergence
Summary of the method: (§2)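 Seeds sown in loam–sand blend got a preemergence directed soil spray of compound in non-phytotoxic solvent with surfactant. Postemergence treatment was given at 2–10 cm, one- to two-leaf stage. After ~10 d in greenhouse, injury was rated visually vs untreated controls, 0 (no effect) to 100 (complete control).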

[6] = system: wheat (Triticum aestivum); experiment: as above; settings: Postemergence
Summary of the method: as §2

[7] = system: corn (Zea mays); experiment: as above; settings: Postemergence
Summary of the method: as §2

[8] = system: pigweed (Amaranthus retroflexus); experiment: as above
Summary of the method: as §2

[9] = system: barnyardgrass (Echinochloa crus-galli); experiment: as above
Summary of the method: as §2

[10] = system: ryegrass, Italian (Italian ryegrass, Lolium multiflorum); experiment: as above
Summary of the method: as §2

[11] = system: kochia (Kochia scoparia); experiment: as above
Summary of the method: as §2

[12] = system: ragweed (common ragweed, Ambrosia elatior); experiment: as above
Summary of the method: as §2

[13] = system: galium (catchweed bedstraw, Galium aparine); experiment: Test A greenhouse herbicide test, postemergence
Summary of the method: (§3)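 Greenhouse postemergence test: formulated chemicals sprayed on one- to two-leaf plants (2 to 10 cm), grown in loam soil blended with sand. Injury assessed visually about 10 d later against untreated controls, scored 0 (no effect) to 100 (complete control).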

[14] = system: blackgrass (Alopecurus myosuroides); experiment: Test A greenhouse herbicide test, postemergence
Summary of the method: as §3

[15] = Postemergence, 125 g ai/ha, 0 to 100 scale where 0 is no effect and 100 is complete control
[16] = Postemergence, 500 g ai/ha, visual rating after approx. 10 d, 0 to 100 scale (0 no effect, 100 complete control)
[17] = Preemergence, 125 g ai/ha, 0 to 100 scale where 0 is no effect and 100 is complete control
[18] = Preemergence, 500 g ai/ha, 0 to 100 scale where 0 is no effect and 100 is complete control
[19] = 125 g ai/ha, 0 to 100 scale where 0 is no effect and 100 is complete control
[20] = 500 g ai/ha, visual rating after approx. 10 d, 0 to 100 scale (0 no effect, 100 complete control)

Row | SMILES | Plant response rating, Sedge, Umbrella [1] | Plant response rating, Ducksalad [2] | Plant response rating, Barnyardgrass [3] | Plant response rating, Rice [4] | Plant response rating, Foxtail, Giant [5, 15] | Plant response rating, Foxtail, Giant [5, 16] | Foxtail, Giant plant response rating [5, 17] | Plant response rating, Foxtail, Giant [5, 18] | Plant response rating, Wheat [6, 19] | Plant response rating, Wheat [6, 20] | Plant response rating, Corn [7, 19] | Plant response rating, Corn [7, 20] | Plant response rating, Pigweed [8, 15] | Plant response rating, Pigweed [8, 16] | Pigweed plant response rating [8, 17] | Plant response rating, Pigweed [8, 18] | Plant response rating, Barnyardgrass [9, 15] | Plant response rating, Barnyardgrass [9, 16] | Barnyardgrass plant response rating [9, 17] | Plant response rating, Barnyardgrass [9, 18] | also measured
1 | Cc1ccc2c(-c3c(O)c(C)nn(C)c3=O)c(C)ccc2c1 [Compound 110] | 0 | 0 | 0 | 0 | 0 | 10 | 10 | 40 | 0 | 40 | 0 | 20 | 70 | 90 | 90 | 100 | 0 | 10 | 0 | 20 | Plant response rating, Ryegrass, Italian [10, 15]: 70; Plant response rating, Ryegrass, Italian [10, 16]: 90; Ryegrass, Italian plant response rating [10, 17]: 20; Plant response rating, Ryegrass, Italian [10, 18]: 80; Plant response rating, Kochia [11, 15]: 50; Plant response rating, Kochia [11, 16]: 70; Kochia plant response rating [11, 17]: 0; Plant response rating, Kochia [11, 18]: 100; Plant response rating, Ragweed [12, 15]: 60; Plant response rating, Ragweed [12, 16]: 100; Ragweed plant response rating [12, 17]: 30; Plant response rating, Ragweed [12, 18]: 40; Plant response rating, Galium [13, 19]: 70; Plant response rating, Galium [13, 20]: 90; Plant response rating, Blackgrass [14, 19]: 20; Plant response rating, Blackgrass [14, 20]: 60
2 | COC(=O)Oc1c(OC)nn(C)c(=O)c1-c1c(C)sc2ccc(Cl)cc12 [Compound 112] | 0 | 0 | 0 | 0 | 20 | 50 | 50 | 60 | 20 | 30 | 0 | 30 | 20 | 30 | 90 | 100 | 20 | 20 | 10 | 20 | Plant response rating, Ryegrass, Italian [10, 15]: 80; Plant response rating, Ryegrass, Italian [10, 16]: 100; Ryegrass, Italian plant response rating [10, 17]: 90; Plant response rating, Ryegrass, Italian [10, 18]: 100; Plant response rating, Kochia [11, 15]: 20; Plant response rating, Kochia [11, 16]: 30; Kochia plant response rating [11, 17]: 20; Plant response rating, Kochia [11, 18]: 80; Plant response rating, Ragweed [12, 15]: 60; Plant response rating, Ragweed [12, 16]: 80; Ragweed plant response rating [12, 17]: 40; Plant response rating, Ragweed [12, 18]: 80; Plant response rating, Galium [13, 19]: 70; Plant response rating, Galium [13, 20]: 90; Plant response rating, Blackgrass [14, 19]: 40; Plant response rating, Blackgrass [14, 20]: 80
3 | CCc1nn(C)c(=O)c(-c2c(C)oc3ccc(C)cc23)c1O [Compound 118] | 0 | 0 | 0 | 0 | 0 | 0 | 0 | 20 | 0 | 0 | 0 | 0 | 0 | 0 | 0 | 10 | 0 | 0 | 0 | 30 | Plant response rating, Ryegrass, Italian [10, 15]: 0; Plant response rating, Ryegrass, Italian [10, 16]: 0; Ryegrass, Italian plant response rating [10, 17]: 0; Plant response rating, Ryegrass, Italian [10, 18]: 0; Plant response rating, Kochia [11, 15]: 0; Plant response rating, Kochia [11, 16]: 0; Kochia plant response rating [11, 17]: 0; Plant response rating, Kochia [11, 18]: 0; Plant response rating, Ragweed [12, 15]: 0; Plant response rating, Ragweed [12, 16]: 0; Ragweed plant response rating [12, 17]: 0; Plant response rating, Ragweed [12, 18]: 0; Plant response rating, Galium [13, 19]: 0; Plant response rating, Galium [13, 20]: 0; Plant response rating, Blackgrass [14, 19]: 0; Plant response rating, Blackgrass [14, 20]: 0
4 | Cc1ccc2oc(C)c(-c3c(O)c(C(C)C)nn(C)c3=O)c2c1 [Compound 119] | 0 | 0 | 0 | 0 | 0 | 0 | 0 | 0 | 0 | 0 | 0 | 0 | 0 | 0 | 0 | 0 | 0 | 0 | 0 | 0 | Plant response rating, Ryegrass, Italian [10, 15]: 0; Plant response rating, Ryegrass, Italian [10, 16]: 0; Ryegrass, Italian plant response rating [10, 17]: 0; Plant response rating, Ryegrass, Italian [10, 18]: 0; Plant response rating, Kochia [11, 15]: 0; Plant response rating, Kochia [11, 16]: 0; Kochia plant response rating [11, 17]: 0; Plant response rating, Kochia [11, 18]: 0; Plant response rating, Ragweed [12, 15]: 0; Plant response rating, Ragweed [12, 16]: 0; Ragweed plant response rating [12, 17]: 0; Plant response rating, Ragweed [12, 18]: 0; Plant response rating, Galium [13, 19]: 0; Plant response rating, Galium [13, 20]: 0; Plant response rating, Blackgrass [14, 19]: 0; Plant response rating, Blackgrass [14, 20]: 0
5 | COc1nn(C)c(=O)c(-c2c(C)sc3ccc(Cl)cc23)c1OC(C)=O [Compound 122] | 0 | 0 | 0 | 0 | 40 | 60 | 30 | 70 | 0 | 0 | 0 | 20 | 30 | 70 | 100 | 100 | 20 | 30 | 0 | 30 | Plant response rating, Ryegrass, Italian [10, 15]: 50; Plant response rating, Ryegrass, Italian [10, 16]: 70; Ryegrass, Italian plant response rating [10, 17]: 70; Plant response rating, Ryegrass, Italian [10, 18]: 90; Plant response rating, Kochia [11, 15]: 40; Plant response rating, Kochia [11, 16]: 70; Kochia plant response rating [11, 17]: 30; Plant response rating, Kochia [11, 18]: 70; Plant response rating, Ragweed [12, 15]: 50; Plant response rating, Ragweed [12, 16]: 60; Plant response rating, Ragweed [12, 18]: 80; Plant response rating, Galium [13, 19]: 60; Plant response rating, Galium [13, 20]: 70; Plant response rating, Blackgrass [14, 19]: 30; Plant response rating, Blackgrass [14, 20]: 40
